Experimental data reported in patent US5859067A, “Use of natural products and related synthetic compounds for the treatment of cardiovascular disease” (priority 1993, dated 1999).
“And” between values parts separate entries of the source, which are not always exact repeats. Identical values can stand only once.

Tests used:
[1] = biological target: T1, human erythrocyte plasma membrane Ca^2+ -ATPase (Homo sapiens, UniProt P23634); assay: Ca^2+ -ATPase assay (microplate method), absence (-CaM) and presence (+CaM) of calmodulin (Table 1A); format: biochemical
T1 construct: Calmodulin-depleted erythrocyte membranes were prepared by continuous filtration through a hollow fibre; tissue New South Wales Red Cross Transfusion Service, Sydney; host or cells: human packed red blood cells (calmodulin-depleted erythrocyte membranes)
T1 sequence (P23634 1-1205 isoform P23634-6): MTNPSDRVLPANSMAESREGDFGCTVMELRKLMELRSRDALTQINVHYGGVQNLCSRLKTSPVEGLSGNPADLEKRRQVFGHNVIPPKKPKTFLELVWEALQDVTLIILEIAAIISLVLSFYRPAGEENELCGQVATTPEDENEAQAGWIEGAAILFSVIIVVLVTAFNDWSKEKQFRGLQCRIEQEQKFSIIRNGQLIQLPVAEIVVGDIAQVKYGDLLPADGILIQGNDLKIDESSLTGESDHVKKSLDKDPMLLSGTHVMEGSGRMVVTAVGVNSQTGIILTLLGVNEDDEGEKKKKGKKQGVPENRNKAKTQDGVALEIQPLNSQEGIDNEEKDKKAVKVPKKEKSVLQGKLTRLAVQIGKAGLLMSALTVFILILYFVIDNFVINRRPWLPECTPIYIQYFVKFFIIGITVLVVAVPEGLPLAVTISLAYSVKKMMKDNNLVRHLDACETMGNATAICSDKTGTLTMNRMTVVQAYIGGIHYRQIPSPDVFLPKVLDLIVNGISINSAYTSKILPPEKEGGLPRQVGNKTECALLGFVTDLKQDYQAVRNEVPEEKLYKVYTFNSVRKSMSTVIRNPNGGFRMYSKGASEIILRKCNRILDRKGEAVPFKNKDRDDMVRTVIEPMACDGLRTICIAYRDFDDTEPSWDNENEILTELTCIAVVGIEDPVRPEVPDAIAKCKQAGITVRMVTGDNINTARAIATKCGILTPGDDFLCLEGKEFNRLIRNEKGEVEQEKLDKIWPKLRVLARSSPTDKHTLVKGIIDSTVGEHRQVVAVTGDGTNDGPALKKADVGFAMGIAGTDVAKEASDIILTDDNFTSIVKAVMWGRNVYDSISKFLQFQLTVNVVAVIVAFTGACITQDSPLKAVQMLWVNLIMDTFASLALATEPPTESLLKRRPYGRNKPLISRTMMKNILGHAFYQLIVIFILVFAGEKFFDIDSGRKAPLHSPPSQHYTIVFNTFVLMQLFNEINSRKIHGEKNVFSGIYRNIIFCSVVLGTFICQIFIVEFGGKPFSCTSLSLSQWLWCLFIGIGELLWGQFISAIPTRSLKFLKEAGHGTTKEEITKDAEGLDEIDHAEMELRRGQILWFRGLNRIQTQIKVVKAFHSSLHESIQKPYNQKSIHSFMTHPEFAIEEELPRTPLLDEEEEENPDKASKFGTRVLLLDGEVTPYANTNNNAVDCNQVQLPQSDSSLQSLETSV
T1 sequence (P35613 140-385 partner limits assumed): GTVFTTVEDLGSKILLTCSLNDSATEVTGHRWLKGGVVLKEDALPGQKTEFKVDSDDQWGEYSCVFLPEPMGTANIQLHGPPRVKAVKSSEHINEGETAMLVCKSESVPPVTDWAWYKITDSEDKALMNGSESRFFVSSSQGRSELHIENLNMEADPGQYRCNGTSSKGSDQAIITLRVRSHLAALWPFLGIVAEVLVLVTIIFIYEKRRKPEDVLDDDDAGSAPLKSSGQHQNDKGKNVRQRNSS
Description: Natural and synthetic compounds of formula (I) were tested for their ability to influence human erythrocyte plasma membrane Ca^2+ -ATPase. The enzyme Ca^2+ -ATPase in the human red blood cell plasma membrane has previously been studied and its stimulation by calmodulin and activation by lipids and proteolysis and its primary structure have been published (see Carafoli E (1991) Calcium pump of the plasma membrane, Physiological Reviews 71, 129-153.
(§1) Calmodulin-depleted erythrocyte membranes were prepared by continuous filtration through a hollow fibre, Ashahi plasma separator as described by W S Price, B D Roufogalis, P W Kuchel (1989), A simple and inexpensive method for preparing erythrocyte membranes by filtration through a hollow-filter system, Anal. Biochem., 179, 190-193. Packed cells were obtained from the New South Wales Red Cross Transfusion Service, Sydney. The whole preparation was carried out at 4° C. 1 unit of packed red cells was washed 3 times with isotonic buffer, containing 130 mM KCl, 20 mM Tris-HCl (pH 7.4), and the cells were collected by centrifugation at 4,000 RPM. The cells were haemolysed by the buffer containing 1 mM EDTA, 10 mM Tris-Hcl (pH 7.4), 0.5 mM PMSF (phenylmethyl sulfonyl fluoride). The haemolyzate mixture was passed through the hollow fibre system until the membrane appeared white, and then washed with 10 mM potassium Hepes (pH 7.4). The membranes were collected by centrifugation at 10,000 RPM for 20 min, the membranes were resuspended in storage buffer containing 130 mM KCl, 2 mM dithiothreitol, 0.5 mM MgCl2, 20 mM potassium-Hepes (pH 7.5). The membranes with protein concentration of 1.5-5.4 mg/ml were stored at -80° C. until required.
Erythrocyte membranes were incubated at 37° C. for one hour in a total volume of 60 μl of 65 mM KCl, 50 mM HEPES (pH=7.4), 5 mM MgCl2, 50 μM CaCl2, 0.1 mM EGTA and in absence and presence of calmodulin (0.3 μM). Test compounds were dissolved in dimethyl sulfoxide DMSO and 2 μl was added to the assay mixture prior the addition of ATP. The final concentration of DMSO in the assay mixture was 3%. The reaction was started by adding 2 mM ATP (pH=7.4). After 1 hour of incubation, colouring agent (180 μl) was added and incubated at 37° C. for 1/2 hrs. The phosphate liberated to the assay medium was determined spectrometrically using a microplate reader at 750 nm. The activity of the Mg^2+ -ATPase (assayed in the absence of added CaCl2) was subtracted from the total activity assayed in the presence of Ca^2+.

[2] = tested on: brine shrimp (Artemia salina Leach); assay: Brine shrimp toxicity bioassay; format: in vivo; settings: for LC50: Artemia salina, read-out: LC50 brine shrimp; for LC50 / toxicity to brine shrimp (in words): 24 hours
Description: There are many applications of the assay including analysis of toxic substances, anaesthetics, morphine-like substances and cocarcinogenicity of phorbol esters.
6 (K Hostettman, ed.), Academ Press, London, 1-32. DMSO solutions of the substances to be tested were added directly to the vials containing the brine shrimp. As the concentration of DMSO that we wished to use was higher than the recommended 1% v/v testing of the toxicity of the DMSO was therefore necessary.
Brine shrimp toxicity was assayed, except for some minor modifications, according to the method of McLaughlin et al as reported in Brine Shrimp: A convenient general bioassay for active plant constituents, B N Meyer, N R Ferrigni, J E Putman, L B Jacobsen, D E Nhols and J L McLaughlin. […] J L McLaughlin. […] 6 (K Hostettman, ed.), Academ Press, London, 1-32. Ten shrimp were added transferred to each of the vials and the volume adjusted to 4.9 mL. Each dose was performed in triplicate, including the control. In quick succession, the appropriate volume of additional DMSO for each dose, required to achieve a final concentration of 2%, was added before the appropriate volume of test solution. The vials were gently mixed and the time noted. After 24 hours, the number of survivors were counted and % mortality was determined.
The LC50 values were expressed in both μM and μg/mL.

[3] = biological target: T1, human erythrocyte plasma membrane Ca^2+ -ATPase; assay: Ca^2+ -ATPase assay (erythrocyte membranes; Table 1); format: biochemical; settings: for inhibition at 100 µM: read-out: INHIBITION OF Ca^2+ -ATPase PERCENT (%); for IC50: read-out: INHIBITION OF Ca^2+ -ATPase IC50
Description: Natural and synthetic compounds of formula (I) were tested for their ability to influence human erythrocyte plasma membrane Ca^2+ -ATPase.
as §1, with “Packed” for “Calmodulin-depleted erythrocyte membranes were prepared by continuous filtration through a hollow fibre, Ashahi plasma separator as described by W S Price, B D Roufogalis, P W Kuchel (1989), A simple and inexpensive method for preparing erythrocyte membranes by filtration through a hollow-filter system, Anal. Biochem., 179, 190-193. Packed”
Erythrocyte membranes (0.071-0.098 mg/ml) were incubated at 37° C. for one hour in a total volume of 0.4 ml of 65 mM KCl, 20 mM potassium-Hepes, 5 mM MgCl2, 50 μM CaCl2, 0.1 μm calmodulin, 0.1 mM EGTA. The reaction was started by adding 2 mM ATP(pH 7.4). […] The activity of the Mg^2+ -ATPase (assayed in the absence of added CaCl2) was subtracted from the total activity assayed in the presence of Ca^2+. […] A concentrated solution of the test substances was added to the reaction medium before adding ATP.

[4] = absence of calmodulin, read-out: IC50 (-CaM)
[5] = presence of calmodulin (0.3 μM), read-out: IC50 (+CaM)
[6] = IC50 (+CaM), presence of calmodulin (0.3 μM)
[7] = IC50 (-CaM), absence of calmodulin

| Molecule | IC50 [1, 4] | IC50 [1, 5] | LC50 [2] | also measured |
| --- | --- | --- | --- | --- |
| CCCCCCCCCC(c1ccccc1O)c1ccccc1O [1,1-bis(2-hydroxyphenyl)decane] | 74 µM | 68 µM | 14 µM and 4.6 µg/mL | – |
| Oc1ccc(CCCCCCCCc2ccc(O)cc2O)c(O)c1 [1,8-bis(2,4-dihydroxyphenyl)octane] | 50 µM | 48 µM | 74 µM and 24 µg/mL | – |
| Oc1ccccc1CCCCCCCCc1ccccc1O [1,8-bis(2-hydroxyphenyl)octane] | 24 µM | 24 µM | 3 µM and 0.89 µg/mL | – |
| Oc1ccccc1CCCCCCCCCc1ccccc1O [1,9-bis(2-hydroxyphenyl)nonane] | 13.5 µM | 14 µM | – | – |
| Cc1c(O)ccc(CCCCCCCCCCc2ccc(O)c(C)c2O)c1O [1,10-bis(2,4-dihydroxy-3-methylphenyl)decane] | 100 µM | 100 µM | > 25 µM and > 9.7 µg/mL | – |
| Oc1ccc(CCCCCCCCCCc2ccc(O)cc2O)c(O)c1 [1,10-bis(2,4-dihydroxyphenyl)decane] | 10 µM | 16 µM | 37 µM and 13 µg/mL | toxicity to brine shrimp (in words) [2]: relatively low toxicity; Ca^2+ -ATPase inhibitory activity (in words) [1]: most potent inhibitors of plasma Ca^2+ -ATPase among the synthesised substances |
| Oc1ccc2ccccc2c1CCCCCCCCCCc1c(O)ccc2ccccc12 [1,10-bis(2-hydroxy-1-naphthyl)decane] | 92 µM | 90 µM | > 25 µM and > 11 µg/mL | – |
| Cc1cccc(CCCCCCCCCCc2cccc(C)c2O)c1O [1,10-bis(2-hydroxy-3-methylphenyl)decane] | 50 µM | 55 µM | 5.8 µM and 2.1 µg/mL | – |
| Cc1ccc(CCCCCCCCCCc2ccc(C)cc2O)c(O)c1 [1,10-bis(2-hydroxy-4-methylphenyl)decane] | 29 µM | 29 µM | 14 µM and 5 µg/mL | toxicity to brine shrimp (in words) [2]: reduced toxicity |
| Cc1ccc(O)c(CCCCCCCCCCc2cc(C)ccc2O)c1 [1,10-bis(2-hydroxy-5-methylphenyl)decane] | 22 µM | 20.5 µM | – | – |
| Cc1ccc(CCCCCCCCCCc2ccc(C)c(O)c2)cc1O [1,10-bis(3-hydroxy-4-methylphenyl)decane] | 51 µM | 48 µM | 11 µM and 3.9 µg/mL | – |
| Oc1cccc(CCCCCCCCCCc2cccc(O)c2)c1 [1,10-bis(3-hydroxyphenyl)decane] | 30 µM | 32 µM | 3 µM and 0.98 µg/mL | – |
| Cc1cc(CCCCCCCCCCc2ccc(O)c(C)c2)ccc1O [1,10-bis(4-hydroxy-3-methylphenyl)decane] | 100 µM | 94 µM | 4.2 µM and 1.5 µg/mL | – |
| Oc1ccc(CCCCCCCCCCCc2ccc(O)cc2O)c(O)c1 [1,11-bis(2,4-dihydroxyphenyl)undecane] | 25 µM | 21.7 µM | > 25 µM and > 9.3 µg/mL | – |
| Oc1ccc(CCCCCCCCCCCCc2ccc(O)cc2O)c(O)c1 [1,12-bis(2,4-dihydroxyphenyl)dodecane] | 12 µM | 20 µM | 14 µM and 5.4 µg/mL | – |
| CCCCCCCCCc1cc([N+](=O)[O-])cc(Br)c1O [2-bromo-4-nitro-6-nonylphenol] | – | – | – | IC50 [1, 6]: 70 µM |
| CCCCCCCCCc1ccc(C)cc1O [3-methyl-6-nonylphenol] | – | – | – | IC50 [1, 6]: 60 µM; IC50 [1, 7]: 52 µM |
| CCCCCCCCCc1cc(Br)cc([N+](=O)[O-])c1O [4-bromo-2-nitro-6-nonylphenol] | – | – | – | IC50 [1, 6]: 65.5 µM |
| CCCCCCCCCc1cc(Br)ccc1O [4-bromo-6-nonylphenol] | – | – | – | IC50 [1, 6]: 55 µM; IC50 [1, 7]: 52 µM |
| CCCCCCCCCc1cc(C)ccc1O [4-methyl-6-nonylphenol] | – | – | – | IC50 [1, 6]: 75 µM; IC50 [1, 7]: 80 µM |
| CCCCCCCCCc1cc([N+](=O)[O-])ccc1O [4-nitro-6-nonylphenol] | – | – | – | IC50 [1, 6]: 70 µM; IC50 [1, 7]: 80 µM |
| CCCCCCCCCCc1c(Br)c(O)c(Br)c(O)c1C(=O)OCC [ethyl 3,5-dibromo-2,4-dihydroxy-6-decylbenzoate] | – | – | 780 nM and 0.37 µg/mL | inhibition at 100 µM [3]: 73%; IC50 [3]: 69 µM |
| CCCCCCCCCc1c(Br)c(O)c(Br)c(O)c1C(=O)OCC [ethyl 3,5-dibromo-2,4-dihydroxy-6-nonylbenzoate] | – | – | 780 nM and 0.36 µg/mL | inhibition at 100 µM [3]: 95%; IC50 [3]: 44 µM |
| CCCCCCCCCCCCCc1cc(O)cc(O)c1 [grevillol, 5-tridecylresorcinol] | – | – | 2.8 µM and 0.8 µg/mL | toxicity to brine shrimp (in words) [2]: moderately toxic; Ca^2+ -ATPase inhibitory activity (in words) [3]: weak; inhibition at 100 µM [3]: 44%; IC50 [3]: 143 µM |
| CC(C)=CCC/C(C)=C/CC/C(C)=C/Cc1c(O)cc(C)cc1O [grifolin, 2-E,E-farnesyl-5-methyl-resorcinol] | – | – | 2.3 µM and 0.75 µg/mL | inhibition at 100 µM [3]: 100%; IC50 [3]: 22.5 µM |
| CC(C)=CCC/C(C)=C/CC/C(C)=C/Cc1c(C)cc(O)cc1O [neogrifolin, 4-E,E-farnesyl-5-methyl-resorcinol] | – | – | 28 µM and 9 µg/mL | relative toxicity to brine shrimp ([2]; neogrifolin compared with grifolin): about ten-fold weaker; Ca^2+ -ATPase inhibitory activity (in words) [3]: most potent among the alkyl and alkenyl resorcinols tested; inhibition at 100 µM [3]: 100%; IC50 [3]: 23.3 µM |

Second part, led by results:

| IC50 [1, 4] | IC50 [1, 5] | Molecule | LC50 [2] | also measured |
| --- | --- | --- | --- | --- |
| 400 µM | 400 µM | 2-bromo-6-nonylresorcinol | – | – |
| 400 µM | 400 µM | 4-bromo-6-nonylresorcinol | – | – |
| 125 µM | – | CCCCCCCCCc1ccc(O)cc1O [4-nonylresorcinol] | 10 µM and 2.4 µg/mL | – |
| 45.3 µM | – | C=C(C)C(CC=C(C)C)Cc1c(OC)cc(O)c2c1OC(c1c(O)cccc1O)CC2=O (centres unmarked) [5,2',6'-trihydroxy-8-lavandulyl-7-methoxyflavanone] | – | – |
| 26.5 µM | – | C=C(C)C(CC=C(C)C)Cc1c(O)cc(O)c2c1OC(c1ccccc1O)CC2=O (centres unmarked) [5,7,6'-trihydroxy-8-lavandulylflavanone] | – | – |
